{"source": "ChEMBL document CHEMBL1130558", "about": "“Synthesis and preliminary structure-activity relationships of 1-[(3-fluoro-4-pyridinyl)amino]-3-methyl-1H-indol-5-yl methyl carbamate (P10358), a novel acetylcholinesterase inhibitor” (Bioorg Med Chem Lett, 1997)", "key": {"Cholinesterase [1]": {"biological_target": "T1, Cholinesterase (Homo sapiens, UniProt P06276)", "T1 sequence (P06276 whole entry)": "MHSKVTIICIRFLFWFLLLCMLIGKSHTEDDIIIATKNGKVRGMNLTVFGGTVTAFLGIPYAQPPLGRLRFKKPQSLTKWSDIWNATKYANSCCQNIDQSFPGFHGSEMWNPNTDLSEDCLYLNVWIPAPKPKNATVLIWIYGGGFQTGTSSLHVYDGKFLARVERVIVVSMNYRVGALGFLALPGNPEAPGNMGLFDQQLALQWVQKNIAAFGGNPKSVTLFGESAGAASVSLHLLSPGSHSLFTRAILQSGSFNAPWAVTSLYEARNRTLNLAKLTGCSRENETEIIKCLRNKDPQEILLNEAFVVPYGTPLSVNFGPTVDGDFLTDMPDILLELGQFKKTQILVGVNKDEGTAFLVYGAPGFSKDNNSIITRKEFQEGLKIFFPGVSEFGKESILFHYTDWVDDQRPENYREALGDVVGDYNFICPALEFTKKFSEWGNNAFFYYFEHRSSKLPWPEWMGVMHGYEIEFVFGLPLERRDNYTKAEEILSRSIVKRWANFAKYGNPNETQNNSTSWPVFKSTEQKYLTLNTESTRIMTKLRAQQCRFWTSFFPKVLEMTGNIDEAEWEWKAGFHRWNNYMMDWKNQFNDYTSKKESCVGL", "assay": "In vitro inhibition of human serum Butyrylcholinesterase using butyrylthiocholine as substrate; 0.01-0.069"}, "Mus musculus [2]": {"test_system": "Mus musculus", "assay": "Compound evaluated in vivo for reversing the Scopolamine dementia dark avoidance (SDDA) in mice expressed number of active dosages versus the total number of dosages evaluated; 4/9 and active", "assay_type": "functional, organism-based"}, "Mus musculus [3]": {"test_system": "Mus musculus", "assay": "The percent of animals in the scopolamine-drug group with latencies greater than the cutoff time at subcutaneous dose of 2.5 mg/kg", "assay_type": "functional"}, "Acetylcholinesterase [4]": {"biological_target": "T2, Acetylcholinesterase (Rattus norvegicus, UniProt P37136)", "T2 sequence (P37136 whole entry)": "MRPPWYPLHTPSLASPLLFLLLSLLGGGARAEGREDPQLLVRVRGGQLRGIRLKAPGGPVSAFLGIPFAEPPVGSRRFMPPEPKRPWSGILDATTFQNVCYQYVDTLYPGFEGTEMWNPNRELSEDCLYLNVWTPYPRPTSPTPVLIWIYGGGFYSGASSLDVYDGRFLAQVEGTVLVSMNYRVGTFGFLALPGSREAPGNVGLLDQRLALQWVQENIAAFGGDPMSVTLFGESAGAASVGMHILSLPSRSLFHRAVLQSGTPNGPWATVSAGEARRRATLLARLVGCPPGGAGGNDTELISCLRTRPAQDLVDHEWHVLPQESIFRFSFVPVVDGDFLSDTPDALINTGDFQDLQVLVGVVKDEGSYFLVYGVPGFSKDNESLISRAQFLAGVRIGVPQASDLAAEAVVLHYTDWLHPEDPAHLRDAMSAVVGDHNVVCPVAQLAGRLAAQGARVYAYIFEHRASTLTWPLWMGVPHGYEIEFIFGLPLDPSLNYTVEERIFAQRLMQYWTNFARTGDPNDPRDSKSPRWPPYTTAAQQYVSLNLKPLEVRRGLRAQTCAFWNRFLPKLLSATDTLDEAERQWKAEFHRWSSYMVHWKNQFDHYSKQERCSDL", "assay": "Compound was evaluated in vitro in rats for the inhibition of brain (striatal) acetylcholinesterase (AChEI) using acetylthiocholine as substrate; 0.014-0.14"}, "Mus musculus [5]": {"test_system": "Mus musculus", "assay": "The percent of animals in the scopolamine-drug group with latencies greater than the cutoff time at subcutaneous dose of 0.04 mg/kg;", "assay_type": "functional"}, "Mus musculus [6]": {"test_system": "Mus musculus", "assay": "The percent of animals in the scopolamine-drug group with latencies greater than the cutoff time at subcutaneous dose of 1.25 mg/kg", "assay_type": "functional"}, "[7]": {"biological_target": "T3, Acetylcholinesterase (Rattus norvegicus) (UniProt P37136)", "T3 sequence (whole entry)": "T2 sequence (P37136 whole entry)", "assay": "Tested for percent ex vivo inhibition of rat striatal acetylcholinesterase at peroral dose of 20 mg/kg at 1 hr", "assay_type": "organism-based", "design": "dose 20 mg/kg"}, "[8]": {"biological_target": "T3, Acetylcholinesterase (Rattus norvegicus)", "assay": "Tested for percent ex vivo inhibition of rat striatal acetylcholinesterase at peroral dose of 20 mg/kg at 24 hr", "assay_type": "organism-based", "design": "dose 20 mg/kg"}, "[9]": {"biological_target": "T3, Acetylcholinesterase (Rattus norvegicus)", "assay": "Tested for percent ex vivo inhibition of rat striatal acetylcholinesterase at peroral dose of 20 mg/kg at 6 hr", "assay_type": "organism-based", "design": "dose 20 mg/kg"}, "[10]": {"biological_target": "T3, Acetylcholinesterase (Rattus norvegicus)", "assay": "Tested for percent ex vivo inhibition of rat striatal acetylcholinesterase at peroral dose of 20 mg/kg at 4 hr", "assay_type": "organism-based", "design": "dose 20 mg/kg"}, "Mus musculus [11]": {"test_system": "Mus musculus", "assay": "The percent of animals in the scopolamine-drug group with latencies greater than the cutoff time at subcutaneous dose of 5 mg/kg", "assay_type": "functional"}, "Acetylcholinesterase [12]": {"biological_target": "T2, Acetylcholinesterase", "assay": "Compound was evaluated in vitro in rats for the inhibition of brain (striatal) acetylcholinesterase (AChEI) using acetylthiocholine as substrate; 0.0026-0.031"}, "Mus musculus [13]": {"test_system": "Mus musculus", "assay": "The percent of animals in the scopolamine-drug group with latencies greater than the cutoff time at subcutaneous dose of 0.001 mg/kg", "assay_type": "functional"}, "Mus musculus [14]": {"test_system": "Mus musculus", "assay": "The percent of animals in the scopolamine-drug group with latencies greater than the cutoff time at subcutaneous dose of 0.003 mg/kg", "assay_type": "functional"}, "Cholinesterase [15]": {"biological_target": "T1, Cholinesterase", "assay": "In vitro inhibition of human serum Butyrylcholinesterase using butyrylthiocholine as substrate; 0.00029-0.001"}, "Mus musculus [16]": {"test_system": "Mus musculus", "assay": "The percent of animals in the scopolamine-drug group with latencies greater than the cutoff time at subcutaneous dose of 0.1 mg/kg", "assay_type": "functional"}, "[17]": {"biological_target": "T3, Acetylcholinesterase (Rattus norvegicus)", "assay": "Compound was evaluated ex vivo for the inhibition of acetylcholinesterase (AChEI) one hour after oral administration"}, "Mus musculus [18]": {"test_system": "Mus musculus", "assay": "The percent of animals in the scopolamine-drug group with latencies greater than the cutoff time at subcutaneous dose of 0.01 mg/kg", "assay_type": "functional"}, "Mus musculus [19]": {"test_system": "Mus musculus", "assay": "The percent of animals in the scopolamine-drug group with latencies greater than the cutoff time at subcutaneous dose of 1.0 mg/kg", "assay_type": "functional"}, "Mus musculus [20]": {"test_system": "Mus musculus", "assay": "Compound evaluated in vivo for reversing the Scopolamine dementia dark avoidance (SDDA) in mice expressed number of active dosages versus the total number of dosages evaluated; 5/7 and active", "assay_type": "functional, organism-based"}, "Mus musculus [21]": {"test_system": "Mus musculus", "assay": "Compound was evaluated in vivo for the significant activity at all doses in reversing the Scopolamine dementia dark avoidance (SDDA) in mice; 1/6", "assay_type": "functional"}, "Acetylcholinesterase [22]": {"biological_target": "T2, Acetylcholinesterase", "assay": "Compound was evaluated in vitro in rats for the inhibition of brain (striatal) acetylcholinesterase (AChEI) using acetylthiocholine as substrate; 0.024-0.14"}, "Mus musculus [23]": {"test_system": "Mus musculus", "assay": "The percent of animals in the scopolamine-drug group with latencies greater than the cutoff time at subcutaneous dose of 0.63 mg/kg", "assay_type": "functional"}, "Cholinesterase [24]": {"biological_target": "T1, Cholinesterase", "assay": "In vitro inhibition of human serum Butyrylcholinesterase using butyrylthiocholine as substrate; 0.023-0.041"}}, "note": "The source made the active and inactive calls.", "data": [{"compound": "CCCN(c1ccncc1F)n1cc(C)c2cc(OC(=O)NCc3ccccc3)ccc21", "values": [{"measurement": "IC50", "setting": "Cholinesterase [1]", "result": 27, "unit": "nM"}, {"measurement": "Activity", "setting": "Mus musculus [2]", "result": "Active"}, {"measurement": "Response", "setting": "Mus musculus [3]", "result": 20, "unit": "%"}, {"measurement": "IC50", "setting": "Acetylcholinesterase [4]", "result": 43, "unit": "nM"}, {"measurement": "Response", "setting": "Mus musculus [5]", "result": 20, "unit": "%"}, {"measurement": "Response", "setting": "Mus musculus [6]", "result": 20, "unit": "%"}, {"measurement": "inhibition", "setting": "[7]", "result": 15, "unit": "%"}, {"measurement": "inhibition", "setting": "[8]", "result": 2, "unit": "%"}, {"measurement": "inhibition", "setting": "[9]", "result": 6, "unit": "%"}, {"measurement": "inhibition", "setting": "[10]", "result": 12, "unit": "%"}, {"measurement": "Response", "setting": "Mus musculus [11]", "result": 20, "unit": "%"}]}, {"compound": "CCCCCCCNC(=O)Oc1ccc2c(c1)[C@]1(C)CCN(C)[C@@H]1N2C", "note": "[EPTASTIGMINE]", "values": [{"measurement": "IC50", "setting": "Acetylcholinesterase [12]", "result": 9, "unit": "nM"}, {"measurement": "Response", "setting": "Mus musculus [13]", "result": 40, "unit": "%"}, {"measurement": "Response", "setting": "Mus musculus [14]", "result": 53, "unit": "%"}, {"measurement": "IC50", "setting": "Cholinesterase [15]", "result": 0.69, "unit": "nM"}, {"measurement": "Response", "setting": "Mus musculus [16]", "result": 33, "unit": "%"}, {"measurement": "ED50", "setting": "[17]", "result": 10.1, "unit": "mg/kg"}, {"measurement": "Response", "setting": "Mus musculus [18]", "result": 45, "unit": "%"}, {"measurement": "Response", "setting": "Mus musculus [19]", "result": 20, "unit": "%"}, {"measurement": "Activity", "setting": "Mus musculus [20]", "result": "Active"}]}, {"compound": "CCCN(c1ccncc1F)n1cc(C)c2cc(OC(=O)NC)ccc21", "values": [{"measurement": "Activity", "setting": "Mus musculus [21]", "result": 1}, {"measurement": "IC50", "setting": "Acetylcholinesterase [22]", "result": 58, "unit": "nM"}, {"measurement": "Response", "setting": "Mus musculus [23]", "result": 27, "unit": "%"}, {"measurement": "inhibition", "setting": "[7]", "result": 50, "unit": "%"}, {"measurement": "inhibition", "setting": "[8]", "result": 9, "unit": "%"}, {"measurement": "inhibition", "setting": "[10]", "result": 41, "unit": "%"}, {"measurement": "IC50", "setting": "Cholinesterase [24]", "result": 31, "unit": "nM"}]}]}
